# Experimental data published in patent publication US20240382476A1, “ANDROGEN RECEPTOR BIOMARKERS FOR CANCER THERAPY” (priority 2021, published 2024).
# Key:
# [1] = tested on: 22RV1 (AR+) prostate tumors; assay: Antitumor activity in mice bearing subcutaneously xenografted 22RV1 prostate tumors; assay type: in vivo, nude mice; conditions: 22RV1 (AR+) s.c. xenograft; 21-days s.c. continuous infusion by osmotic pump
# Source text: (§1) Animal Models. Five or six-week old male nude mice were purchased from SPF Biotechnology Co., Ltd. (Beijing, China). The prostate tumor cell suspensions (PC-3 or 22RV1) were grafted subcutaneously into the flank of nude mice at a concentration of 3×10^6 cells/mouse. Eight mice whose tumor volumes length×width^2×0.5 (length×width^2×0.5) reached approximately 100 mm^3 were divided into groups. For 21-days subcutaneous (s.c.) continuous infusion, an osmotic pump containing YM155 was implanted in the dorsum of each animal. Body weight and tumor diameter were measured every 3-4 days. The results are shown in FIG. 6A (AR^−) and 6B (AR^+). Anti-tumor activities are expressed as percent inhibition of tumor growth. The percent inhibition of tumor growth on day 21/28 was calculated using following formula: Mean % Inhibition=(mean (Control)−mean (YM155))/mean (Control)*100%. The treatment was started at day 0; vertical bars, SEM.
# [2] = tested on: AR− and AR+ prostate carcinoma cells (PC-3, DU145, 22Rv1, LNCaP, VcaP, LNCaP clone FGC); assay: Cell treatment and proliferation assay with high content imaging; assay type: cell-based, human; conditions: 6.25-100 nM for 72 hrs (FIG. 2); 10 nM for 2-72 hrs (FIGS. 3A-3B)
# Protocol: Cell Treatment and proliferation assay. PC-3 and DU145 cells were seeded in 96-well plates (Corning, USA) at 2000 cells/well; LNCaP, VcaP, and LNCaP clone FGC cells were seeded at 5000 cells/well; and 22Rv1 cells were seeded at 3000 cells/well. Cells were treated with 10 nM YM155 or 0.1% DMSO (VWR, USA) for different times (2, 6, 24, 48, and 72 hrs). DU145 cells were also treated with YM155 (10 nM) in further combination with etoposide (0.2 ∪M)+carboplatin (2 ∪M), etoposide (0.2 ∪M)+cisplatin (2 μM), or docetaxel (0.005 μM)+carboplatin (2 μM). At indicated times, cells were fixed with Formaldehyde (final concentration at 4 or 5%; Thermo, USA) for 30-40 minutes at room temperature. The cells were washed three times with PBS (Cellmax, China), then blocked and permeabilized with 3% BSA (Sigma, USA) in 0.5% Triton X-100 (Sigma, USA) for 2 hrs at room temperature. After discarding the supernatant, the cells were incubated with DAPI (Beyotime, China) for 10 minutes at room temperature, then washed again three times with PBS. The cells were kept in PBS and protected from light throughout experiments. The treated cells were scanned for image acquisition with CellInsight™ CX5 High-Content Screening (HSC) Platform (Thermo Fisher), equipped with filters for DAPI (Ex: 386 nm).
# PC-3, DU145, 22Rv1, LNCaP, VcaP, and LNCaP clone FGC cells were seeded in 96-well plates at 2000 cells/well. […]
# [3] = tested on: PC-3 (AR−) prostate tumors; assay: Antitumor activity in mice bearing subcutaneously xenografted PC-3 prostate tumors; assay type: in vivo, nude mice; conditions: PC-3 (AR−) s.c. xenograft, 21-days s.c. continuous infusion by osmotic pump
# Source text: as §1
substance,measurement,setting,value
"1-(2-Methoxyethyl)-2-methyl-4,9-dioxo-3-(pyrazin-2-ylmethyl)-4,9-dihydro-1H-naphtho [2,3-d] imidazolium bromide [YM155]",activity towards tumor growth relative to control,[1],no significant difference
same,sensitivity of AR− versus AR+ prostate carcinoma cells to treatment (total cell count),[2],more sensitive
same,percent inhibition of tumor growth relative to control,[3]; day 21,89.62%
same,percent inhibition of tumor growth relative to control,[3]; day 28,93.63%
